Values after ≈ are worked out from the molar mass of the structure shown. Where two headings read alike, the source gives them in different places.
What was measured:
[1] = test system: fungi; conditions: comparison compounds from Streptomyces; cited from earlier work
[2] = comparison compounds; cited from earlier work
[3] = test system: Candida albicans, Aspergillus fumigatus, and Cladosporium spp. fungi; assay: TLC bioassay for the detection of the biological activity; type: cell-based; conditions: bands at Rf 0.48 and 0.72, CHCl3-MeOH 16:1
Protocol: The crude extract obtained from the mycelium was spotted on a TLC plate (5×20, […]) and developed (CHCl3 -MeOH, 16:1 v/v). The plate was then marked under UV and visible light for individual spots or regions. The spores of the agar slant culture of the test organism was suspended in 10 ml of sterile physiological saline. The growth medium containing agar was then shaken well with 50 ul of the above suspension (35-40° C.) and poured over the developed TLC plate uniformly and allowed to set. The plates were then placed in a moist chamber and incubated at 26° C. for 24 to 72 hours and the zone of inhibition was recorded for the respective spots of the plate. The test organisms were Candida albicans, Aspergillus fumigatus, and Cladosporium spp. fungi and the growth medium was potato dextrose agar (PDA, 39 g/l).

[4] = Solubility; type: physicochemical
[5] = test system: Aspergillus fumigatus; assay: MIC against Aspergillus fumigatus, broth dilution; type: cell-based; conditions: fungus, ca 10,000 CFU, liquid Emmons medium, DMSO solution
Protocol: (§1) Known amounts of the purified substance were dissolved in DMSO and serial dilutions prepared in the same solvent. A 20 ul volume of each dilution was placed on the surface of Emmon's agar in petri-dishes seeded with various test strains of pathogenic and saprophytic fungi. The antibacterial activity was monitored using Muller-Hilton agar. The minimum inhibitory concentration (MIC) was determined by incorporating known amount of the DMSO dissolved purified substance into Emmon's liquid medium (same as stated earlier but devoid of agar) contained in test tubes. The tubes were inoculated with ca 2×10^3 CFU of the test organisms. The inoculated tubes were incubated at 26° C. and the results recorded after two to 5 days' depending upon the growth pattern of the test organisms (certain fungi grow faster than others). Tubes inoculated in an identical manner but devoid of the active substance served as controls.
(§2) Minimum inhibitory concentration of Spartanamycin-B against certain bacteria and fungi. (The substance was dissolved in DMSO, 20 ul of the solution was mixed with two ml of liquid Emmons medium containing ca 10,000 Colony forming Units of fungal test strains or 100,000 CFU's of bacterial test strains).

[6] = test system: A. niger; assay: MIC against A. niger, broth dilution; type: cell-based; conditions: fungus, ca 10,000 CFU, liquid Emmons medium, DMSO solution
Protocol: as §1, §2

[7] = test system: A. flavus; assay: MIC against A. flavus, broth dilution; type: cell-based; conditions: fungus, ca 10,000 CFU, liquid Emmons medium, DMSO solution
Protocol: as §1, §2

[8] = test system: Penicillium species; assay: MIC against Penicillium species, broth dilution; type: cell-based; conditions: fungus, ca 10,000 CFU, liquid Emmons medium, DMSO solution
Protocol: as §1, §2

[9] = test system: Cladosporium species; assay: MIC against Cladosporium species, broth dilution; type: cell-based; conditions: fungus, ca 10,000 CFU, liquid Emmons medium, DMSO solution
Protocol: as §1, §2

[10] = test system: Candida albicans; assay: MIC against Candida albicans, broth dilution; type: cell-based; conditions: fungus, ca 10,000 CFU, liquid Emmons medium, DMSO solution
Protocol: as §1, §2

[11] = test system: C. quilliermondii; assay: MIC against C. quilliermondii, broth dilution; type: cell-based; conditions: fungus, ca 10,000 CFU, liquid Emmons medium, DMSO solution
Protocol: as §1, §2

[12] = test system: Cryptococcus neoformans-N-2; assay: MIC against Cryptococcus neoformans-N-2, broth dilution; type: cell-based; conditions: N = encapsulated, mucoid strain with neurotropic tendencies, ca 10,000 CFU
Protocol: as §1, §2

[13] = test system: C. neoformans-N-3; assay: MIC against C. neoformans-N-3, broth dilution; type: cell-based; conditions: N = encapsulated, mucoid strain with neurotropic tendencies, ca 10,000 CFU
Protocol: as §1, §2

[14] = test system: C. neoformans-G-3; assay: MIC against C. neoformans-G-3, broth dilution; type: cell-based; conditions: G = nonencapsulated, drypasty, highly virulent strain, ca 10,000 CFU
Protocol: as §1, §2

[15] = test system: C. neoformans serotype-C; assay: MIC against C. neoformans serotype-C, broth dilution; type: cell-based; conditions: ca 10,000 CFU, liquid Emmons medium
Protocol: as §1, §2

[16] = test system: C. neoformans serotype-D; assay: MIC against C. neoformans serotype-D, broth dilution; type: cell-based; conditions: ca 10,000 CFU, liquid Emmons medium
Protocol: as §1, §2

[17] = test system: Rhodotorula rubra; assay: MIC against Rhodotorula rubra, broth dilution; type: cell-based; conditions: fungus, ca 10,000 CFU, liquid Emmons medium
Protocol: as §1, §2

[18] = test system: R. glutinis; assay: MIC against R. glutinis, broth dilution; type: cell-based; conditions: fungus, ca 10,000 CFU, liquid Emmons medium
Protocol: as §1, §2

[19] = test system: Citrobacter species; assay: MIC against Citrobacter species; type: cell-based; conditions: bacterial strain, 100,000 CFU
Protocol: as §1, §2

[20] = test system: Pseudomonas aeruginosa; assay: MIC against Pseudomonas aeruginosa; type: cell-based; conditions: bacterial strain, 100,000 CFU
Protocol: as §1, §2

[21] = test system: Plebsiella pneumoniae; assay: MIC against Plebsiella pneumoniae; type: cell-based; conditions: bacterial strain, 100,000 CFU
Protocol: as §1, §2

[22] = test system: Escherichia coli; assay: MIC against Escherichia coli; type: cell-based; conditions: bacterial strain, 100,000 CFU
Protocol: as §1, §2

[23] = test system: Staphylococcus aureus ATCC 29213; assay: MIC against Staphylococcus aureus ATCC 29213; type: cell-based; conditions: bacterial strain, 100,000 CFU
Protocol: as §1, §2

[24] = test system: S. aureus ATCC 25923; assay: MIC against S. aureus ATCC 25923; type: cell-based; conditions: bacterial strain, 100,000 CFU
Protocol: as §1, §2

[25] = test system: S. aureus (multiple drug resistant); assay: MIC against S. aureus (multiple drug resistant); type: cell-based; conditions: bacterial strain, 100,000 CFU
Protocol: as §1, §2

[26] = stability on standing in 2N HCl; type: physicochemical; conditions: upon standing in 2N HCl
[27] = test system: murine tumors; conditions: more active than adriamycin; cited from earlier work
[28] = hexane, cyclohexane, water and 2N HCl

## CCC1(O)CC(OC2CC(N(C)C)C(OC3CC4OC5CC(=O)C(C)OC5OC4C(C)O3)C(C)O2)c2c(cc3c(c2O)C(=O)c2c(O)ccc(O)c2C3=O)C1C(=O)OC (stereo not shown) [cinerubin B]
[1]
  antifungal properties: not significantly antifungal
[2]
  solubility in methanol and ethanol: soluble

## CCC1(O)CC(OC2CC(N(C)C)C(OC3CC4OC5CC(=O)C(C)OC5OC4C(C)O3)C(C)O2)c2c(cc3c(c2O)C(=O)c2c(O)ccc(O)c2C3=O)C1C(=O)OC (stereo not shown) [Spartanamicin A]
[3]
  biological activity of TLC band: biologically active
[4]; 1-butanol, ethanol, methanol
  Solubility: Sparingly soluble
[4]; chloroform, carbon tetrachloride, toluene, ethyl acetate, DMF, DMSO, acetonitrile, acetone and glacial acetic acid
  Solubility: Soluble
[4]; [28]
  Solubility: Insoluble
[4]
  solubility in methanol and ethanol: not soluble

## CCC1(O)CC(OC2CC(N(C)C)C(OC3CC(O)C(OC4CCC(=O)C(C)O4)C(C)O3)C(C)O2)c2c(cc3c(c2O)C(=O)c2c(O)ccc(O)c2C3=O)C1C(=O)OC (stereo not shown) [cinerubin A]
[1]
  antifungal properties: not significantly antifungal
[2]
  solubility in methanol and ethanol: soluble

## CC[C@@]1(O)C[C@H](O[C@H]2C[C@H](N(C)C)[C@H](O[C@H]3C[C@H](O)[C@H](O[C@H]4CCC(=O)[C@H](C)O4)[C@H](C)O3)[C@H](C)O2)c2c(cc3c(c2O)C(=O)c2c(O)ccc(O)c2C3=O)[C@H]1C(=O)OC [Spartanamicin B]
[5]
  MIC: 0.4 µg/mL (≈ 0.483 µM)
[6]
  MIC: 0.6 µg/mL (≈ 0.725 µM)
[7]
  MIC: 0.6 µg/mL (≈ 0.725 µM)
[8]
  MIC: 0.2 µg/mL (≈ 0.242 µM)
[9]
  MIC: 0.4 µg/mL (≈ 0.483 µM)
[10]
  MIC: 0.2 µg/mL (≈ 0.242 µM)
[11]
  MIC: 0.8 µg/mL (≈ 0.966 µM)
[12]
  MIC: 0.8 µg/mL (≈ 0.966 µM)
[13]
  MIC: 0.6 µg/mL (≈ 0.725 µM)
[14]
  MIC: 1.0 µg/mL (≈ 1.21 µM)
[15]
  MIC: 0.8 µg/mL (≈ 0.966 µM)
[16]
  MIC: 0.8 µg/mL (≈ 0.966 µM)
[17]
  MIC: 0.8 µg/mL (≈ 0.966 µM)
[18]
  MIC: 0.4 µg/mL (≈ 0.483 µM)
[19]
  MIC: not active
[20]
  MIC: 100 µg/mL (≈ 121 µM)
[21]
  MIC: 100 µg/mL (≈ 121 µM)
[22]
  MIC: not active
[23]
  MIC: 0.8 µg/mL (≈ 0.966 µM)
[24]
  MIC: 0.8 µg/mL (≈ 0.966 µM)
[25]
  MIC: not active
[3]
  biological activity of TLC band: biologically active
[4]; 1-butanol, ethanol, methanol, acetonitrile
  Solubility: Sparingly soluble
[4]; chloroform, carbon tetrachloride, toluene, ethyl acetate, DMF, DMSO, acetone and glacial acetic acid
  Solubility: Soluble
[4]; [28]
  Solubility: Insoluble
[4]
  solubility in methanol and ethanol: not soluble
[26]
  stability in 2N HCl: hydrolyses

## CCN[C@H]1CO[C@@H](O[C@H]2[C@H](O[C@H]3C#C/C=C\C#C[C@]4(O)CC(=O)C(NC(=O)OC)=C3/C4=C\CSSSC)O[C@H](C)[C@@H](NO[C@H]3C[C@H](O)[C@H](SC(=O)c4c(C)c(I)c(O[C@@H]5O[C@@H](C)[C@H](O)[C@@H](OC)[C@H]5O)c(OC)c4OC)[C@@H](C)O3)[C@@H]2O)C[C@@H]1OC [Calicheamicin]
[27]
  activity relative to adriamycin against murine tumors: approximately 1000 fold

From patent US5066585A, “Method of inhibiting fungus using novel antifungal compounds” (priority 1990, dated 1991)
